Molecules are shown by their SMILES.

Data on one molecule can be found in ChEMBL document CHEMBL5291721, “A preclinical secondary pharmacology resource illuminates target-adverse drug reaction associations of marketed drugs” (Nat Commun, 2023).

Among the targets are Vasopressin V2 receptor (Homo sapiens, UniProt P30518); Melanocortin receptor 3 (Homo sapiens, UniProt P41968); Motilin receptor (Homo sapiens, UniProt O43193).
The target in a further test is T1, Adenosine receptor A1 (Homo sapiens, UniProt P30542).
T1 sequence (P30542 whole entry): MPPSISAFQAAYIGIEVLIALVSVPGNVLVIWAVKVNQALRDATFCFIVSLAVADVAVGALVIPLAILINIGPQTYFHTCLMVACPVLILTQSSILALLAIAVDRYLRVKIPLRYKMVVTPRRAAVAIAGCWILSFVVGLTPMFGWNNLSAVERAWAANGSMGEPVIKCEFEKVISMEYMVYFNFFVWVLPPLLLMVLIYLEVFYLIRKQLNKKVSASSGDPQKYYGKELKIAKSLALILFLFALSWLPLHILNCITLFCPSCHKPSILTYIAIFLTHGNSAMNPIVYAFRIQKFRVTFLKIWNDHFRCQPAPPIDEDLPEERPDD

Test [1] concerns the target T2, Type-1 angiotensin II receptor (Homo sapiens, UniProt P30556).
T2 sequence (P30556 whole entry): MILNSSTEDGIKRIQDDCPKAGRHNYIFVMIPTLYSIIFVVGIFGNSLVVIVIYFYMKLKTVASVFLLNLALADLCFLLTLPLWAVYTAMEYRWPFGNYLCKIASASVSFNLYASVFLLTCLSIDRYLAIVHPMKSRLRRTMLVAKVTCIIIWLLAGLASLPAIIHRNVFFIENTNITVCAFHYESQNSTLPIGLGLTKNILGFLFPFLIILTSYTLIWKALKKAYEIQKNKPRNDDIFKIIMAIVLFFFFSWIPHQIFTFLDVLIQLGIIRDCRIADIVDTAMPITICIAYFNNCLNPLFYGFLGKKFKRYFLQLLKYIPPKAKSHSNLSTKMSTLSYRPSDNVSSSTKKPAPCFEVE

Another test addresses D(1A) dopamine receptor (Homo sapiens, UniProt P21728). It counts as functional, cell-based.
In a further test the target is T3, Endothelin-1 receptor (Homo sapiens, UniProt P25101).
T3 sequence (P25101 whole entry): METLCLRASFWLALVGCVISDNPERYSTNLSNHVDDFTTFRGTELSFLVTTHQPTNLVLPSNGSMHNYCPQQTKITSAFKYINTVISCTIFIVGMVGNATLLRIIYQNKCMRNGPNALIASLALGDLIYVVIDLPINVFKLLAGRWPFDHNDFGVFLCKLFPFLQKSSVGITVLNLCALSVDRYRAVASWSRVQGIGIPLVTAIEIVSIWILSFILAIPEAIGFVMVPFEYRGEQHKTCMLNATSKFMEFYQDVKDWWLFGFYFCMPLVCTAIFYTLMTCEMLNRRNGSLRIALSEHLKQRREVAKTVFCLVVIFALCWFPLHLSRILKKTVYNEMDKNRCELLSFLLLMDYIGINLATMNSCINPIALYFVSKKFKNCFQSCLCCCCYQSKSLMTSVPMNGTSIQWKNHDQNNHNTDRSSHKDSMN

Test [2] concerns the target Gamma-aminobutyric acid receptor subunit alpha-1/alpha-2/beta-2/gamma-2 (Homo sapiens, UniProt P14867+P18507+P47869+P47870). The format is protein-complex assay.
The target of test [3] is Glutamate receptor ionotropic, NMDA 1 (Rattus norvegicus, UniProt P35439).
For the next test, the target named is Histamine H2 receptor (Homo sapiens, UniProt P25021). It counts as functional, cell-based.
For test [4], the target named is T4, 5-hydroxytryptamine receptor 3A (Homo sapiens, UniProt P46098).
T4 sequence (P46098 whole entry): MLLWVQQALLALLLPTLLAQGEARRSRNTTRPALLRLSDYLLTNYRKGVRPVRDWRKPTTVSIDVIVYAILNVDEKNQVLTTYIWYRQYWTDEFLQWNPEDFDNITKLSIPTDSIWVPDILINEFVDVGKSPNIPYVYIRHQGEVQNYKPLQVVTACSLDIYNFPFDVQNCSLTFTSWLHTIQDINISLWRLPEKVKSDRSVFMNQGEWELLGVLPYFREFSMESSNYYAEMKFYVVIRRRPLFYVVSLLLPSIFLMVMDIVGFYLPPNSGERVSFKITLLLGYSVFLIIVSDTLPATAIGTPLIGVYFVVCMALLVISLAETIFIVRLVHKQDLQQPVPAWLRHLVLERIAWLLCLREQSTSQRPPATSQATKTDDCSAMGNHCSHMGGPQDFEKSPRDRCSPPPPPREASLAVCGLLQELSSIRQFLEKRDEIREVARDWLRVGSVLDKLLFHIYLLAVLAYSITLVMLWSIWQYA
The format is functional.

Test [5] deals with Vascular endothelial growth factor receptor 2 (Homo sapiens, UniProt P35968). It counts as functional.
Sequence of Vascular endothelial growth factor receptor 2 (P35968 whole entry): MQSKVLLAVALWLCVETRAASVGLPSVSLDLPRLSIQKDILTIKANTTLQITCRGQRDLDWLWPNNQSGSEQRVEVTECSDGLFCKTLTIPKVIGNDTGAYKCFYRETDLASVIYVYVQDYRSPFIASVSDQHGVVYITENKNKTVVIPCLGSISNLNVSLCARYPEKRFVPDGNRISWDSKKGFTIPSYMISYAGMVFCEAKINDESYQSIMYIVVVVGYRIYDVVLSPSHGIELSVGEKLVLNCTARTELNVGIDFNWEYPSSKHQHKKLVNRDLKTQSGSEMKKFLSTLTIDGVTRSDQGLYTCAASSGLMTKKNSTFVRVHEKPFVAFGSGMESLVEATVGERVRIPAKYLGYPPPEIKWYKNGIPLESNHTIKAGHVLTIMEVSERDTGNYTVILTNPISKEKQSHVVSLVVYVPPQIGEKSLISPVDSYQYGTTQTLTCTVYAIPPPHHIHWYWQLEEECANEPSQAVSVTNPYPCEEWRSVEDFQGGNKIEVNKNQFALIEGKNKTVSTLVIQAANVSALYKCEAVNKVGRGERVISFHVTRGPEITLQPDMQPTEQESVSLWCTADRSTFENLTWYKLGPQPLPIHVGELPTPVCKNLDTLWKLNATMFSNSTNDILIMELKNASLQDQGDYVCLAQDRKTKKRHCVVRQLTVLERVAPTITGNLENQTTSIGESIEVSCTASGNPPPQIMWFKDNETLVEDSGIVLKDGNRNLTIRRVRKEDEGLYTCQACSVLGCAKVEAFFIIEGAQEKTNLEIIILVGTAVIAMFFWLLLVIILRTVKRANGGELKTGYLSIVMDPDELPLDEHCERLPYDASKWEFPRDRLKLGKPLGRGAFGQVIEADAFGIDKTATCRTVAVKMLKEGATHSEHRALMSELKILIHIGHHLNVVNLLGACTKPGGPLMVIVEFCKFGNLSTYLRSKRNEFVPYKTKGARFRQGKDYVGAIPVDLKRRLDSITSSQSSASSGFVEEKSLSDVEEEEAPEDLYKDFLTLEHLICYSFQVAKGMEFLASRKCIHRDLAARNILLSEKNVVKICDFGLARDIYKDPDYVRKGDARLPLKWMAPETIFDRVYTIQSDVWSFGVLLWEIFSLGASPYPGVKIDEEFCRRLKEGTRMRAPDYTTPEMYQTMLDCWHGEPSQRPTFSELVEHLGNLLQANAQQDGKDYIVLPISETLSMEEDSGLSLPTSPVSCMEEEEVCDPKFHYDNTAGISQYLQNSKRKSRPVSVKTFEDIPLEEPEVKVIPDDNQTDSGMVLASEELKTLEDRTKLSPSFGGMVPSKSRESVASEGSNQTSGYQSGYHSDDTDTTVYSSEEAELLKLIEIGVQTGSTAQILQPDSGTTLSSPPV
The target of test [6] is Delta-type opioid receptor (Homo sapiens, UniProt P41143).
Sequence of Delta-type opioid receptor (P41143 whole entry): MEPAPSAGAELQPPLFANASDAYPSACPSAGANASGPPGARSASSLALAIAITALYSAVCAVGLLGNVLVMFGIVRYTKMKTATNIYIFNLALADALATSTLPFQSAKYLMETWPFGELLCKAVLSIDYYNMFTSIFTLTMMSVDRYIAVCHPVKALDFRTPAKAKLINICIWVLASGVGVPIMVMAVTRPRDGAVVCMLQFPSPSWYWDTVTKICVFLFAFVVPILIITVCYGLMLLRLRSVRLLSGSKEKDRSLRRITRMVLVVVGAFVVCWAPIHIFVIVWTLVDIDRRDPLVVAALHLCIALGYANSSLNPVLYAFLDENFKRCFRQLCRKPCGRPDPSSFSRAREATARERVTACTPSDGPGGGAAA
Test [7] has as its target Kappa-type opioid receptor (Homo sapiens, UniProt P41145).
Test [8] has as its target T5, Prostaglandin G/H synthase 1 (Rattus norvegicus, UniProt Q63921).
T5 sequence (Q63921 whole entry): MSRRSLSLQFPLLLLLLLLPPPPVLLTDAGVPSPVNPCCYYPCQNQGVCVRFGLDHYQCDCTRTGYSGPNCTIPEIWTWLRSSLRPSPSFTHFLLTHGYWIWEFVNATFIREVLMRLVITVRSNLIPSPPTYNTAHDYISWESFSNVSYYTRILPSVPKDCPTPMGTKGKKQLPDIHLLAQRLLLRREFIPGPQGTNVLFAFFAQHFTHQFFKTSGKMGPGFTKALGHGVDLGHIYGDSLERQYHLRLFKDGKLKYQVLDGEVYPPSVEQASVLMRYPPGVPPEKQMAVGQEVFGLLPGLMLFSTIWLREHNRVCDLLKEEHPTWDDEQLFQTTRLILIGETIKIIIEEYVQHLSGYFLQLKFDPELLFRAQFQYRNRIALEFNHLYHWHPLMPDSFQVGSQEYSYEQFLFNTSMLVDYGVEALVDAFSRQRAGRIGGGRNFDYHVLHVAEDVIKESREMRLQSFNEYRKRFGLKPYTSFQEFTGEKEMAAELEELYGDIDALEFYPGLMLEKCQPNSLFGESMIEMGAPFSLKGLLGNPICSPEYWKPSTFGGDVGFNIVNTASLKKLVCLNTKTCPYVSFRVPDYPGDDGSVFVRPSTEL
The format is functional.
Further: assay procedure not described here.

Sequence of Gamma-aminobutyric acid receptor subunit alpha-1/alpha-2/beta-2/gamma-2 (P14867 whole entry): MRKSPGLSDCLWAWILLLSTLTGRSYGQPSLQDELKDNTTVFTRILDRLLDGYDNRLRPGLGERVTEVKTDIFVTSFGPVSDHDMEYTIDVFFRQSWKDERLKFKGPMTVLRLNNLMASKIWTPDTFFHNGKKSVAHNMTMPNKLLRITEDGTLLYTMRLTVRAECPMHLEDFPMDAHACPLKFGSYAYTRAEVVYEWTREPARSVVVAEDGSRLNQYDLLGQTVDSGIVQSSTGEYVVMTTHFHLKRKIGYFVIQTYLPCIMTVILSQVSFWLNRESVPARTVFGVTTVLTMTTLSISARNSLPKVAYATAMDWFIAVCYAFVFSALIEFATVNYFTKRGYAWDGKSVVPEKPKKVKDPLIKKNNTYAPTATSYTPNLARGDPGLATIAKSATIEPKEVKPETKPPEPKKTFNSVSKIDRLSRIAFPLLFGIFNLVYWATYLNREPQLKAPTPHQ
Sequence of Gamma-aminobutyric acid receptor subunit alpha-1/alpha-2/beta-2/gamma-2 (P47870 whole entry): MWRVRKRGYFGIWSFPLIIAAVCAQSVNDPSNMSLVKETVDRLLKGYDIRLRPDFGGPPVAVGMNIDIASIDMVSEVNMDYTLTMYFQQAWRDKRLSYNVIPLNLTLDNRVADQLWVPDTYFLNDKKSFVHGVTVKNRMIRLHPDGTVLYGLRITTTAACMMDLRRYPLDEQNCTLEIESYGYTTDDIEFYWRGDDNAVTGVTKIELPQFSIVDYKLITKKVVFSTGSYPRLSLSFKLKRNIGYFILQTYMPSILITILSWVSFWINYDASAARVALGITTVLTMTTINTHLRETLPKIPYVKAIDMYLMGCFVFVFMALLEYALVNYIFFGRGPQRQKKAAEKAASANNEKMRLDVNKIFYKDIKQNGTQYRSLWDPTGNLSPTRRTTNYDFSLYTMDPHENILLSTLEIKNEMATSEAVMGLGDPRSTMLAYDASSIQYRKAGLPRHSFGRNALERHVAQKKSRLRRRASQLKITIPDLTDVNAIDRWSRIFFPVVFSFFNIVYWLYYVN
Sequence of Gamma-aminobutyric acid receptor subunit alpha-1/alpha-2/beta-2/gamma-2 (P18507 whole entry): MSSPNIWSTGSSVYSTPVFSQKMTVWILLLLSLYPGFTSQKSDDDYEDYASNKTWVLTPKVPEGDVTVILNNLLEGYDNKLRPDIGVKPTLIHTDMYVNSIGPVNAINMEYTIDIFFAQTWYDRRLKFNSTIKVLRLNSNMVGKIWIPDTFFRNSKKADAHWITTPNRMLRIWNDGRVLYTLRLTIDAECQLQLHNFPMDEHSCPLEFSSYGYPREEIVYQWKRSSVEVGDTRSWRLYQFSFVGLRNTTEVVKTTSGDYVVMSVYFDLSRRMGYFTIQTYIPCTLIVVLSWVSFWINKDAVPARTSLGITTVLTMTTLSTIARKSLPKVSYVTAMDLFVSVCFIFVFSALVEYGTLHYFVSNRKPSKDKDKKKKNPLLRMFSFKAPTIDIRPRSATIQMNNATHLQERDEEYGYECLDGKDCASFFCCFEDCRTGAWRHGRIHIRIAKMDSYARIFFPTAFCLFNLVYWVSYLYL
Sequence of Gamma-aminobutyric acid receptor subunit alpha-1/alpha-2/beta-2/gamma-2 (P47869 whole entry): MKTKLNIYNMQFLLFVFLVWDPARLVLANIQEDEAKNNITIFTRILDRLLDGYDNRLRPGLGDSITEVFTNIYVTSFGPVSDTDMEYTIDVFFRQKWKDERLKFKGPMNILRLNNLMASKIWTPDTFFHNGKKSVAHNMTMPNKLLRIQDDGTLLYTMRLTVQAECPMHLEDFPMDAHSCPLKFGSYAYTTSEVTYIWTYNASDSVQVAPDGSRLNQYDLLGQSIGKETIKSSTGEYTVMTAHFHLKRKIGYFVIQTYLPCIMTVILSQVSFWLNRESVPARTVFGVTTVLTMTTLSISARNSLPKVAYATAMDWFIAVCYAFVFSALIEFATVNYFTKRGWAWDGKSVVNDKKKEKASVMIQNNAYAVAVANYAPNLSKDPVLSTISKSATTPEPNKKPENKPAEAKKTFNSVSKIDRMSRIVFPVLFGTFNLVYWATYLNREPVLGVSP
Sequence of Motilin receptor (O43193 whole entry): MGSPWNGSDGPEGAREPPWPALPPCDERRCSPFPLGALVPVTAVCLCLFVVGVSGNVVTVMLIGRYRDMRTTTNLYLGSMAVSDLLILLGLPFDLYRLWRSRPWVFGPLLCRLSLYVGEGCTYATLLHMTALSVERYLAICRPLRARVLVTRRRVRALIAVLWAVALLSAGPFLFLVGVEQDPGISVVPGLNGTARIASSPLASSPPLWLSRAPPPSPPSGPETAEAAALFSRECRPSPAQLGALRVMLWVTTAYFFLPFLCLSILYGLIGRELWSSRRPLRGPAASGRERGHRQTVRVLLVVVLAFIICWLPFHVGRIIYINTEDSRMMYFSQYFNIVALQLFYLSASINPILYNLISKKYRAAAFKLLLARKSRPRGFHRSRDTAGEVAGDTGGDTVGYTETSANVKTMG
Sequence of D(1A) dopamine receptor (P21728 whole entry): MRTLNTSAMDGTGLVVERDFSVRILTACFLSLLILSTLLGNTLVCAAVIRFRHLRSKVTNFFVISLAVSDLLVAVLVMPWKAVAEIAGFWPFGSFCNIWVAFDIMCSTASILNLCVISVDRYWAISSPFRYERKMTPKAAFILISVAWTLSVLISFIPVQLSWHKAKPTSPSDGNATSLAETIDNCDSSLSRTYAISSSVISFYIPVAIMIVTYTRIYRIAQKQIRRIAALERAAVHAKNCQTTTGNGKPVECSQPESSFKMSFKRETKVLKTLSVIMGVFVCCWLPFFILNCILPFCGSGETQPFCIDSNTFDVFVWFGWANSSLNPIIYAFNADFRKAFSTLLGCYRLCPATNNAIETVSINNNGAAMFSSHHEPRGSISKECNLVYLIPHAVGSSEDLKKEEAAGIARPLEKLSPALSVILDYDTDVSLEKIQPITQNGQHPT
Sequence of Vasopressin V2 receptor (P30518 whole entry): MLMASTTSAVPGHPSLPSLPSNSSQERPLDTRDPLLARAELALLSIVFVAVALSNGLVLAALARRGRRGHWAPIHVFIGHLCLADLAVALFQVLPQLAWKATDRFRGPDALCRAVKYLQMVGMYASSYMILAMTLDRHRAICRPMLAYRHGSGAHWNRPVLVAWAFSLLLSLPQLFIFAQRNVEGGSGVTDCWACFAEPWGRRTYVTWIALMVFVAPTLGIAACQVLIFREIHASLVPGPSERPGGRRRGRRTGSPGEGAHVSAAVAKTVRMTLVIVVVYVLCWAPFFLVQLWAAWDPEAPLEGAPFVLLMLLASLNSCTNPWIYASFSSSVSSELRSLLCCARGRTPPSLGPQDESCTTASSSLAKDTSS

`CNC(=O)Oc1ccc2c(c1)[C@]1(C)CCN(C)[C@@H]1N2C` [PHYSOSTIGMINE]: the AC50 (at Adenosine receptor A1; in test [1]; at Vasopressin V2 receptor; on D(1A) dopamine receptor; at Endothelin-1 receptor; in [2]) was > 30 µM each time. Also, the AC50 (in test [3]; on Histamine H2 receptor; in test [4]; in [5]; on Melanocortin receptor 3; on Motilin receptor) was > 30 µM each time. Further, the AC50 in [6] is > 30 µM; in test [7], 2.2 µM; in test [8] it was > 30 µM.
